Measured values from patent US8273771B2, “Ischemic disorder or disease inhibitors” (Pronas Pharma AB, priority 2007, dated 2012).

Assays:
[1] = test system: rats with induced SAH; test: Physiological parameters in operated SAH rats; assay type: in vivo, rat; details: sham, SAH+vehicle and treated SAH groups
Description: Subarachnoid hemorrhage was induced by a model originally devised by Svendgaard et al and carefully described by Prunell et al (2003). Male Sprague-Dawley rats (350-400 g) were anaesthetized using 5% halothane (Halocarbon Laboratories, River Edge, N.J.) in N2O/O2 (30:70). The rat was intubated and artificially ventilated with inhalation of 0.5-1.5% halothane in N2O/O2 (70:30) during the surgical procedure. The depth of anaesthesia was carefully monitored and the respiration checked by regularly withdrawing arterial blood samples for blood gas analysis (Radiometer, Copenhagen, Denmark). An electric temperature probe was inserted into the rectum of the rat to record the temperature, which was maintained at 37° C. An arterial catheter to measure blood pressure was placed in the tail artery and a catheter to monitor intracranial pressure (ICP) was placed in the subarachnoid space under the subocciptal membrane. At either side of the skull, 3 mm from the midline and 4 mm anteriorly from the bregma, holes were drilled through the skull bone down to dura mater (without perforation) allowing the placement of two laser-Doppler flow probes to measure cortical CBF. Finally, a 27G blunt canula with side hole was introduced 6.5 mm anterior to bregma in the midline at an angle of 30° to the vertical. With the aperture pointing to the right, the needle was lowered until the tip reached the skull base 2 to […] anterior to the chiasma. After 30 minutes of equilibration 250 μl blood was withdrawn from the tail catheter and injected intracranially via this canula at a pressure equal to the mean arterial blood pressure (MABP) (80-100 mmHg). Subsequently the rat was kept under anaesthesia for another 60 minutes to allow recovery from the cerebral insult after which catheters were removed and incisions closed. The rat was then revitalized and extubated. A subcutaneous injection of carprofen (4.0 mg/kg) (Pfizer, Denmark) was administered and the rat was hydrated subcutaneously using […] isotonic sodium chloride at the end of the operation and at day one.

[2] = test system: MCA and BA from SAH rats; test: Myograph contractile response to ET-1 in cerebral arteries of treated SAH rats; parameters: species or system rat; details: in vivo treated SAH rats compared to SAH rats, no significant difference to sham
Method: (§1) After 48 hours of observation sham, SAH treated with SB386023-b or treated with the PKC inhibitor RO-31-7549 or U0126 or SAH+vehicle operated rats (see above SAH model) were anaesthetized with CO2 and decapitated. The brains were quickly removed and chilled in ice-cold bicarbonate buffer solution (see composition below). Under a dissection microscope, the middle cerebral artery (MCA), the basilar artery (BA) and circle of Willis were carefully dissected free from the brain and cleared of connective tissue. The MCA and BA were immediately mounted in myographs for in vitro pharmacology or snap frozen at −80° C. and examined by real-time PCR.
In vitro Pharmacology Myograph Experiments For contractile experiments a sensitive myograph was used for recording the isometric tension in isolated cerebral arteries (Hogestatt et al., (1983, Mulvany and Helpern, 1977). The vessels were cut into 1 mm long cylindrical segments and mounted on two 40 μm in diameter stainless steel wires in a Myograph (Danish Myo Technology A/S, Denmark). One wire was connected to a force displacement transducer attached to an analog-digital converter unit (ADInstruments, Oxford, UK). The other wire was connected to a micrometer screw, allowing fine adjustments of vascular tone by varying the distance between the wires. Measurements were recorded on a computer by use of a PowerLab unit (ADInstruments). […]

[3] = test system: MCA and BA from rats with induced SAH; test: Myograph contractile response to 5-CT in cerebral arteries of treated SAH rats; parameters: species or system rat; details: treatment in vivo, compared to SAH rats; for 5-CT contraction, first 5-HT1B and second 5-HT2A phases: BA; for 5-CT contraction Emax(1) / 5-CT contraction Emax(2), pEC50(1) and pEC50(2): MCA
Method: as §1
In vitro Pharmacology Myograph Experiments For contractile experiments a sensitive myograph was used for recording the isometric tension in isolated cerebral arteries (Hogestatt et al., (1983, Mulvany and Helpern, 1977). The vessels were cut into 1 mm long cylindrical segments and mounted on two 40 μm in diameter stainless steel wires in a Myograph (Danish Myo Technology A/S, Denmark). One wire was connected to a force displacement transducer attached to an analog-digital converter unit (ADInstruments, Oxford, UK). The other wire was connected to a micrometer screw, allowing fine adjustments of vascular tone by varying the distance between the wires. Measurements were recorded on a computer by use of a PowerLab unit (ADInstruments). The segments were immersed in a temperature controlled buffer solution (37° C.) of the following composition (mM) NaCl 119, NaHCO3 15, KCl 4.6, MgCl2 1.2, NaH2PO4 1.2, CaCl2 1.5 and glucose 5.5. The buffer was continuously aerated with oxygen enriched with 5% CO2 resulting in a pH of 7.4. The vessels were stretched to an initial resting tone of 2 mN and then allowed to stabilize at this tone for 1 hour. The contractile capacity was determined by exposing the vessels to an isotonic solution containing 63.5 mM of K+, obtained by partial change of NaCl for KCl in the above buffer. The contraction induced by K+ was used as reference for the contractile capacity. Only vessels responding by contraction of at least 2.0 mN to potassium for BA and 0.8 mN to potassium for MCA were included in the study. The presence of the endothelium was checked by precontracting the vessel using 5-HT (10^−6.5M) (Sigma, St Louis, USA) and subsequently exposing the segments to carbachol (10^−5 M) (Sigma, St Louis, USA). A relaxant response of the precontracted tension was considered indicative of a functional endothelium (Hansen-Schwartz et al., 2003a).
Concentration-response curves were obtained by cumulative application of 5-CT (Sigma, St. Louis, USA) in the concentration range 10^−12 to 10^−5 M, ET-1 (AnaSpec, San Jose, USA) in the concentration range 10^−14 to 10^−7 M and Ang II (Sigma, St. Louis, USA) in the concentration range 10^−12 to 10^−6 M. Before application of Ang II the arteries were pretreated with the AT2 receptor antagonist PD123319 (10^−5.5 M) for 30 minutes (a kind gift from Dr P. Morsing, Astra-Zeneca, Molndal, Sweden).
Data are expressed as mean±standard error of the mean (s.e.m.), and n refers to the number of rats. Statistical analyses were performed with Kruskal-Wallis non-parametric test with Dunn's post-hoc test, where P<0.05 was considered significant. In vitro Pharmacology Contractile responses in each segment are expressed as percentage of the 63.5 mM K+ induced contraction. Emax value represents the maximum contractile response elicited by an agonist and the pEC50 the negative logarithm of the drug concentration that elicited half the maximum response. For biphasic responses, Emax(1) and pEC50(1) describes the high affinity phase and Emax(2) and pEC50(2) describes the low affinity phase.

**Q.** With `Cn1cc(C2=C(c3cn(CCCN)c4ccccc34)C(=O)NC2=O)c2ccccc21` [RO-31-7549] as the molecule, how does the “physiological parameters (MABP, pCO2, pO2, hematocrit, temperature), difference between groups” value [1] read?
**A.** The value was “No statistical difference”.

**Q.** And the “ET-1 induced contractile response” value [2]?
**A.** Its value is “significantly attenuated”.

**Q.** What about the “5-CT contraction, first 5-HT1B and second 5-HT2A phases” value [3] of the same molecule?
**A.** The value was “downregulated”.

**Q.** What about the “5-CT contraction Emax(1)” value [3] of the same molecule?
**A.** The value was “significantly reduced”.

**Q.** And the “5-CT contraction Emax(2), pEC50(1) and pEC50(2)” value [3]?
**A.** The value was “tendency to decrease”.

**Q.** What does the source list for `Oc1cc(-c2nc(-c3ccccc3)[nH]c2-c2ccncc2)ccc1Cl` [SB386023-b]?
**A.** physiological parameters (MABP, pCO2, pO2, hematocrit, temperature), difference between groups [1]: No statistical difference; ET-1 induced contractile response [2]: significantly attenuated; 5-CT contraction, first 5-HT1B and second 5-HT2A phases [3]: downregulated; 5-CT contraction Emax(1) [3]: significantly reduced; 5-CT contraction Emax(2), pEC50(1) and pEC50(2) [3]: tended to decrease

**Q.** Which results are given for `N#CC(=C(/N)Sc1ccccc1N)/C(C#N)=C(\N)Sc1ccccc1N` [U0126]?
**A.** physiological parameters (MABP, pCO2, pO2, hematocrit, temperature), difference between groups [1]: No statistical difference; 5-CT contraction Emax(1) [3]: significantly reduced; 5-CT contraction Emax(2), pEC50(1) and pEC50(2) [3]: tended to decrease
